Results reported in patent publication US11970498B2, “CDK2 inhibitors” (BLUEPRINT MEDICINES CORPORATION, priority 2021, dated 2024).

Key:
CDK1/Cyclin B1, GST-tag = target: T1, CDK1/Cyclin B1, GST-tag (Homo sapiens, UniProt P06493); test: CDK1/Cyclin B1 biochemical phosphorylation assay (Caliper mobility shift); settings: apparent IC50; 1.0 mM ATP or ATP Km; 1.5 nM enzyme; 25° C.
T1 construct: GST
Method in brief: (§1)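 Caliper electrophoretic separation of substrate and phosphopeptide gave apparent IC50s. Enzymes: CDK1/Cyclin B1 GST-tag 1.5 nM, CDK2/Cyclin E 1.25 nM; ATP 1.0 mM or at Km; 7.5 µM FL-peptide; pH 7.5 HEPES buffer, 1% DMSO; room temperature until 10–20% phosphorylated, then EDTA quench.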

CDK2/Cyclin E = CDK2/Cyclin E (Homo sapiens, UniProt P24941); test: CDK2/Cyclin E biochemical phosphorylation assay (Caliper mobility shift); settings: apparent IC50; 1.0 mM ATP or ATP Km; 1.25 nM enzyme; 25° C.; read-out: CDK2/cyclin E1 IC50
Method in brief: as §1

T1 sequence (P06493 whole entry): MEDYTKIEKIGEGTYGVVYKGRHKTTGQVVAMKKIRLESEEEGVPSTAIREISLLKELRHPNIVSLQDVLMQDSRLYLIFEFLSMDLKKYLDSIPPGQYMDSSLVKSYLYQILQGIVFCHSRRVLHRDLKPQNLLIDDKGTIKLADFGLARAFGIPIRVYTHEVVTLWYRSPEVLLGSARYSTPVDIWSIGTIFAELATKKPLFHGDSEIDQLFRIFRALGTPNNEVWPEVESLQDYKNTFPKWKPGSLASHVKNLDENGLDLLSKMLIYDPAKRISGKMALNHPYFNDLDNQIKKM
T1 sequence (P14635 whole entry partner): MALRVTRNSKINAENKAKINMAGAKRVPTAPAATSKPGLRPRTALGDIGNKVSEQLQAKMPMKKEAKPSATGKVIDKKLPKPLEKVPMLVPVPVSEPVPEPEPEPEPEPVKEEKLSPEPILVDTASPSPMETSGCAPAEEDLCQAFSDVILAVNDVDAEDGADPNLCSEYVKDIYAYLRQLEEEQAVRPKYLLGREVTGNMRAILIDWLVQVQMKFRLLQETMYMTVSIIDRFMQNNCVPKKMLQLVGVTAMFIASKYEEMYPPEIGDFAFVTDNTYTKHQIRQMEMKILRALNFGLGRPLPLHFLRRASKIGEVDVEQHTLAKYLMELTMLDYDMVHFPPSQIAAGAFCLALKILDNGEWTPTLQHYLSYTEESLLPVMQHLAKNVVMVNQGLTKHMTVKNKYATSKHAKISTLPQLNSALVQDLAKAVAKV

| IC50 (CDK1/Cyclin B1, GST-tag) [nM] | IC50 (CDK2/Cyclin E) [nM] | Structure (SMILES) |
| --- | --- | --- |
| ≥ 500 | > 100 | CC[C@@H]([C@@H](C)O)n1ncc2ncc(Nc3cc(OC(F)F)[nH]n3)nc21 (single isomer, unassigned) [Example 201, (2R,3S)-3-(6-((5-(difluoromethoxy)-1H-pyrazol-3-yl)amino)-1H-pyrazolo[3,4-b]pyrazin-1-yl)pentan-2-ol or (2R,3R)-3-(6-((5-(difluoromethoxy)-1H-pyrazol-3-yl)amino)-1H-pyrazolo[3,4-b]pyrazin-1-yl)pentan-2-ol] |
| ≥ 500 | 30 to 100 | FC(F)Oc1cc(Nc2cnc3cnn(Cc4cccc5[nH]ncc45)c3n2)n[nH]1 [Example 128, 1-((1H-indazol-4-yl)methyl)-N-(5-(difluoromethoxy)-1H-pyrazol-3-yl)-1H-pyrazolo[3,4-b]pyrazin-6-amine] |
| ≥ 500 | 20 to 30 | FC(F)Oc1cc(Nc2cnc3cnn(C[C@H]4C[C@@H]4F)c3n2)n[nH]1 (single isomer, unassigned) [Example 160, N-(5-(difluoromethoxy)-1H-pyrazol-3-yl)-1-(((1S,2R)-2-fluorocyclopropyl)methyl)-1H-pyrazolo[3,4-b]pyrazin-6-amine or N-(5-(difluoromethoxy)-1H-pyrazol-3-yl)-1-(((1R,2S)-2-fluorocyclopropyl)methyl)-1H-pyrazolo[3,4-b]pyrazin-6-amine] |
| ≥ 500 | 20 to 30 | COc1cc(Nc2cnc3cnn(C[C@H]4C[C@@H]4C#N)c3n2)n[nH]1 (single isomer, unassigned) [Example 197, (1R,2R)-2-((6-((5-methoxy-1H-pyrazol-3-yl)amino)-1H-pyrazolo[3,4-b]pyrazin-1-yl)methyl)cyclopropane-1-carbonitrile or (1S,2S)-2-((6-((5-methoxy-1H-pyrazol-3-yl)amino)-1H-pyrazolo[3,4-b]pyrazin-1-yl)methyl)cyclopropane-1-carbonitrile] |
| ≥ 500 | 20 to 30 | C[C@@H](c1cncc(F)c1)n1ncc2ncc(Nc3cc(OC(F)F)[nH]n3)nc21 (single isomer, unassigned) [Example 154, (R)-N-(5-(difluoromethoxy)-1H-pyrazol-3-yl)-1-(1-(5-fluoropyridin-3-yl)ethyl)-1H-pyrazolo[3,4-b]pyrazin-6-amine or (S)-N-(5-(difluoromethoxy)-1H-pyrazol-3-yl)-1-(1-(5-fluoropyridin-3-yl)ethyl)-1H-pyrazolo[3,4-b]pyrazin-6-amine] |
| ≥ 500 | 10 to 20 | [2H]C([2H])([2H])Oc1cc(Nc2cnc3cnn(Cc4cccnc4)c3n2)n[nH]1 [Example 227, N-(5-(methoxy-d3)-1H-pyrazol-3-yl)-1-(pyridin-3-ylmethyl)-1H-pyrazolo[3,4-b]pyrazin-6-amine] |
| ≥ 500 | 20 to 30 | COc1cc(Nc2cnc3cnn(CC4(C)COC4)c3n2)n[nH]1 [Example 133, N-(5-methoxy-1H-pyrazol-3-yl)-1-((3-methyloxetan-3-yl)methyl)-1H-pyrazolo[3,4-b]pyrazin-6-amine] |
| < 100 | ≤ 10 | CC(C1CCCOC1)n1ncc2ncc(Nc3cc(OC(F)F)[nH]n3)nc21 (single isomer, unassigned) [Example 218] |
| < 100 | ≤ 10 | FC(F)Oc1cc(Nc2cnc3cnn(C[C@H]4CCOC4)c3n2)n[nH]1 (single isomer, unassigned) [Example 144, (S)-N-(5-(difluoromethoxy)-1H-pyrazol-3-yl)-1-((tetrahydrofuran-3-yl)methyl)-1H-pyrazolo[3,4-b]pyrazin-6-amine or (R)-N-(5-(difluoromethoxy)-1H-pyrazol-3-yl)-1-((tetrahydrofuran-3-yl)methyl)-1H-pyrazolo[3,4-b]pyrazin-6-amine] |
| ≥ 500 | 20 to 30 | O[C@@H]1C[C@H]1Cn1ncc2ncc(Nc3cc(OC(F)F)[nH]n3)nc21 (single isomer, unassigned) [Example 180, (1S,2R)-2-((6-((5-(difluoromethoxy)-1H-pyrazol-3-yl)amino)-1H-pyrazolo[3,4-b]pyrazin-1-yl)methyl)cyclopropan-1-ol or (1R,2S)-2-((6-((5-(difluoromethoxy)-1H-pyrazol-3-yl)amino)-1H-pyrazolo[3,4-b]pyrazin-1-yl)methyl)cyclopropan-1-ol] |

Second part, the compound before the results:

| Structure (SMILES) | IC50 (CDK1/Cyclin B1, GST-tag) [nM] | IC50 (CDK2/Cyclin E) [nM] |
| --- | --- | --- |
| COc1cc(Nc2cnc3cnn([C@@H](C)c4ccccn4)c3n2)n[nH]1 [Example 45, (S)-N-(5-methoxy-1H-pyrazol-3-yl)-1-(1-(pyridin-2-yl)ethyl)-1H-pyrazolo[3,4-b]pyrazin-6-amine] | ≥ 500 | ≤ 10 |
| C[C@@H](c1cccnn1)n1ncc2ncc(Nc3cc(OC(F)F)[nH]n3)nc21 (single isomer, unassigned) [Example 24, (S)—N-(5-(difluoromethoxy)-1H-pyrazol-3-yl)-1-(1-(pyridazin-3-yl)ethyl)-1H-pyrazolo[3,4-b]pyrazin-6-amine or (R)—N-(5-(difluoromethoxy)-1H-pyrazol-3-yl)-1-(1-(pyridazin-3-yl)ethyl)-1H-pyrazolo[3,4-b]pyrazin-6-amine] | 100 to 500 | ≤ 10 |
| CC[C@@H]([C@H](C)O)n1ncc2ncc(Nc3cc(OC(F)F)[nH]n3)nc21 (single isomer, unassigned) [Example 6, (2S,3S)-3-(6-((5-(difluoromethoxy)-1H-pyrazol-3-yl)amino)-1H-pyrazolo[3,4-b]pyrazin-1-yl)pentan-2-ol or (2S,3R)-3-(6-((5-(difluoromethoxy)-1H-pyrazol-3-yl)amino)-1H-pyrazolo[3,4-b]pyrazin-1-yl)pentan-2-ol] | ≥ 500 | 30 to 100 |
| FC[C@H](c1ccccn1)n1ncc2ncc(Nc3cc(OC(F)F)[nH]n3)nc21 (single isomer, unassigned) [Example 16, (S)—N-(5-(difluoromethoxy)-1H-pyrazol-3-yl)-1-(2-fluoro-1-(pyridin-2-yl)ethyl)-1H-pyrazolo[3,4-b]pyrazin-6-amine or (R)—N-(5-(difluoromethoxy)-1H-pyrazol-3-yl)-1-(2-fluoro-1-(pyridin-2-yl)ethyl)-1H-pyrazolo[3,4-b]pyrazin-6-amine] | ≥ 500 | ≤ 10 |
| COc1cc(Nc2cnc3cnn([C@@H](C)c4cncs4)c3n2)n[nH]1 [Example 74, (S)-N-(5-methoxy-1H-pyrazol-3-yl)-1-(1-(thiazol-5-yl)ethyl)-1H-pyrazolo[3,4-b]pyrazin-6-amine] | ≥ 500 | 20 to 30 |
| OC1(Cn2ncc3ncc(Nc4cc(OC(F)F)[nH]n4)nc32)CCOCC1 [Example 49, 4-((6-((5-(difluoromethoxy)-1H-pyrazol-3-yl)amino)-1H-pyrazolo[3,4-b]pyrazin-1-yl)methyl)tetrahydro-2H-pyran-4-ol] | 100 to 500 | ≤ 10 |
| FC(F)Oc1cc(Nc2cnc3cnn(CC45CC(C4)C5)c3n2)n[nH]1 [Example 106, 1-(bicyclo[1.1.1]pentan-1-ylmethyl)-N-(5-(difluoromethoxy)-1H-pyrazol-3-yl)-1H-pyrazolo[3,4-b]pyrazin-6-amine] | 100 to 500 | ≤ 10 |
| FC(F)Oc1cc(Nc2cnc3c(Cl)nn(CC4CCOCC4)c3n2)n[nH]1 [Example 56, 3-chloro-N-(5-(difluoromethoxy)-1H-pyrazol-3-yl)-1-((tetrahydro-2H-pyran-4-yl)methyl)-1H-pyrazolo[3,4-b]pyrazin-6-amine] | ≥ 500 | 10 to 20 |
